Measurements taken from US10688197B2, “Non-alcoholic fatty liver regulator 14-3-3 protein” (Korea University Research and Business Foundation, priority 2015, dated 2020).

Experiments:
PPAR-RXR complex = target: T1, PPAR-RXR complex (Homo sapiens, UniProt P37231); assay: Formation of the PPAR-RXR complex; type: cell-based; conditions: overexpression, FIG. 8C
T1 sequence (P37231 1-505): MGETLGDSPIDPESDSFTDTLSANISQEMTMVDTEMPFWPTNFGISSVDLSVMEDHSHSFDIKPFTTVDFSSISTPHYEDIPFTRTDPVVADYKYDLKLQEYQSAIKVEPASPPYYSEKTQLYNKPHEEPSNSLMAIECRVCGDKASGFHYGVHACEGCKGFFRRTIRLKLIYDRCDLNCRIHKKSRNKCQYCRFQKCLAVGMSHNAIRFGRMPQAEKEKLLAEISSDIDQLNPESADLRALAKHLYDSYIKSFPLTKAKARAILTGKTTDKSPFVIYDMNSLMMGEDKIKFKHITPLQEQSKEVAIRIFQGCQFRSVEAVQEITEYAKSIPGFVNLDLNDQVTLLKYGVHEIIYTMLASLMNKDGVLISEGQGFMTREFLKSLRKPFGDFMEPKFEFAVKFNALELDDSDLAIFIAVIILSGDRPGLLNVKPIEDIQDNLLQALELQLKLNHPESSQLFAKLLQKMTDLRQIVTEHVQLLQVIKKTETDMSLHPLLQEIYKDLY
T1 sequence (P19793 1-462 partner): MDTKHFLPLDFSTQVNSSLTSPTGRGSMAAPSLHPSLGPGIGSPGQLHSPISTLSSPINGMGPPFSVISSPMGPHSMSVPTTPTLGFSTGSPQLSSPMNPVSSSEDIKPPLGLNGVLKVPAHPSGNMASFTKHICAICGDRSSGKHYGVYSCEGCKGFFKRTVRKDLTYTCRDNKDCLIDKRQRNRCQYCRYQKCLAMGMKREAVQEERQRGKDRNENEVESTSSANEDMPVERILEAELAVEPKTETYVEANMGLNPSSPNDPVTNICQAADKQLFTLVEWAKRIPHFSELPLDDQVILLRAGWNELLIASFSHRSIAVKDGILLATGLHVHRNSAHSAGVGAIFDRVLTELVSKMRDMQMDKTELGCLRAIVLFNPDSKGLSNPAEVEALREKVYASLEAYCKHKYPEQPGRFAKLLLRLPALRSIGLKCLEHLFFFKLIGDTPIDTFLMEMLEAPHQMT

[1] = tested on: primary mouse hepatocytes; assay: mRNA expression by real-time PCR in primary mouse hepatocytes; type: cell-based; conditions: for mRNA expression of SREBP-1c and FAT/CD36: overexpression, oleic acid, FIG. 7B
Method: HepG2 cells and primary mouse hepatocytes were separately seeded in a 6-well plate at a density of 4×10^5 cells per each well, and then treated with 200 μM of oleic acid (OA) for 72 hours. For mRNA extraction, the corresponding cells were lysed with 1 ml/well of TRIzol (Invitrogen), 200 μl of chloroform was added thereto and mixed well, the resultant cells were maintained at room temperature for 5 minutes and then centrifuged at 12,000×g and 4° C. for 15 minutes, the obtained supernatant was mixed with 500 μl of isopropanol and then put on ice for 10 minutes, the resulting supernatant was centrifuged at 12,000×g and 4° C. for 15 minutes to remove a supernatant, and then pellets were dissolved with tertiary distilled water treated with diethyl pyrocarbonate (DEPC). 2 μg of mRNA was synthesized into cDNA using a Superscript First Strand cDNA Synthesis Kit (Bioneer, Daejeon, South Korea) and the synthesized cDNA as a template was amplified through polymerase chain reaction (PCR) using primers specific to PPARγ2, 14-3-3β, 14-3-3γ, SREBP-1c, SCD-1, ACC, FABP, FAT/CD36, and β-actin of humans, and was amplified through real-time PCR using primers specific to PPARγ2, 14-3-3β, 14-3-3γ, SREBP-1c, FAT/CD36, and GAPDH of mice. β-actin and GAPDH were used as controls to see whether mRNAs of the respective cells were compared in the same amount.
HepG2 cells were seeded in a 6-well plate at a density of 4×10^5 cells per each well, and then transfected with GFP-14-3-3β DNA (4 μg) or GFP-14-3-3γ DNA (4 μg) using an E-fection plus reagent (Lugen). A ratio of DNA to the E-fection plus reagent was 1:2, and this method was performed according to a manufacturer's manual. After transfection, the cells were treated with 200 μM of oleic acid (OA) for 72 hours, and for mRNA extraction, the corresponding cells were lysed with 1 ml/well of TRIzol (Invitrogen), 200 μl of chloroform was added thereto and mixed well, the resultant cells were maintained at room temperature for 5 minutes and then centrifuged at 12,000×g and 4° C. for 15 minutes, the obtained supernatant was mixed with 500 μl of isopropanol and then put on ice for 10 minutes, and the resulting supernatant was centrifuged at 12,000×g and 4° C. for 15 minutes to remove a supernatant, and then pellets were dissolved with tertiary distilled water treated with diethyl pyrocarbonate (DEPC). 2 μg of mRNA was synthesized into cDNA using a Superscript First Strand cDNA Synthesis Kit (Bioneer, Daejeon, South Korea) and the synthesized cDNA as a template was amplified through polymerase chain reaction (PCR) using primers specific to PPARγ2 (SEQ ID NOS: 1 and 2), 14-3-3β (SEQ ID NOS: 3 and 4), 14-3-3γ (SEQ ID NOS: 5 and 6), SREBP-1c, FAT/CD36, and β-actin of humans, and was amplified through real-time PCR using primers specific to SREBP-1c, FAT/CD36, and GAPDH of mice. β-actin and GAPDH were used as controls to see whether mRNAs of the respective cells were compared in the same amount.

formation of the PPAR-RXR complex (PPAR-RXR complex) | Compound | mRNA expression of SREBP-1c and FAT/CD36 [1] | mRNA expression of PPARγ2 ([1]; oleic acid concentration-dependent, FIG. 6B) | mRNA expression of lipid metabolism-associated genes (PPARγ2 target genes) ([1]; oleic acid concentration-dependent, FIG. 6D) | mRNA expression amounts of 14-3-3β and 14-3-3γ ([1]; oleic acid treatment, FIG. 6B)
did not affect | 14-3-3β: 14-3-3 isoform protein overexpressed by DNA transfection; increases the transcriptional activity of PPARγ2 by binding to PPARγ2 | further increased | – | – | –
did not affect | 14-3-3γ: 14-3-3 isoform protein overexpressed by DNA transfection; decreases the transcriptional activity of PPARγ2; proposed active ingredient | reduced | – | – | –
– | CCCCCCCC/C=C\CCCCCCCC(=O)O [oleic acid] | – | increased | increased | no changes
